Measured values taken from US11571453B2, “Piper laetispicum extract and preparation method therefor and use thereof” (SUZHOU YI-HUA BIOMEDICAL TECHNOLOGY CO., LTD, priority 2017, dated 2023).

Key:
Type in all cases: in vivo
mice = assay: Light and dark box test in mice; settings: 2.0 mg/kg oral, 60 min after dose, 5 min test; n = 10, x ± SD
Description: The positive control drug was diazepam. 60 minutes after oral administration, the light and dark box test was implemented. Each mouse is tested for 5 minutes, and each residence time in the light box and the number of shuttles between the light and dark boxes are recorded.

Kunming mice [1] = assay: Mouse swimming test; settings: 50 mg/kg/d oral, 14 days, 1 h after last dose; n=10, x ± SD
Description: Kunming mice (male, 18-20 g) were randomly divided into 12 groups, each with 10 rats. Each group was given the corresponding dose of extract as shown in Table 4 and normal saline was used as control. The positive control group was venlafaxine. Continuous administered for 14 days, one time per day. One hour after the last oral administration, the mice were placed into a glass tank of 10×20 cm and water depth of 10 cm (water temperature 25° C.) for a swimming test. The swimming duration was 6 minutes, the time to stop motion within 5 minutes was recorded.

Kunming mice [2] = assay: Mouse tail hanging test; settings: 50 mg/kg/d oral, 14 days, 1 h after last dose; n=10, x ± SD
Description: Kunming mice (male, 18-20 g) were randomly divided into 14 groups, each with 10 rats. […] The positive control group was venlafaxine. Continuous administered for 14 days, one time per day. One hour after the last oral administration, the mouse tail hanging test was carried out. The tails of the mice were glued on a wooden bar 50 cm above the table top to make them stand upside down, and the mouse sight was isolated using plates around. The mice would struggle to overcome the abnormal posture, but appear immobile after a period of activity, showing state of despair Duration was 6 minutes, the time of immobility within 6 minutes was recorded.

Wistar rats = assay: Rat learned helplessness test (conditional avoidance)
Description: Wistar rats were selected and randomly grouped into 10 rats in each group. The learned helplessness test model was used in which the corresponding dose of extracts shown as in Table 5 were administered orally by gavage. The positive control was venlafaxine. Continuous administered for 7 days, one time per day. 24 h after the last oral administration, a conditional avoidance test is implemented.

Compound | Number of shuttles (mice) | Time (residence time in the light box) (mice) | Stop motion within 5 min (Kunming mice [1]) [s] | Immobility time within 6 min (Kunming mice [2]) [s] | Escape latency (Wistar rats; 30 mg/kg/d oral gavage, 7 days, 24 h after last dose, u test n = 10, x ± SD) [s] | escape latency of the rats, effect in words (Wistar rats; doses of 10, 5, 2.5 mg/kg/d, compared with the model control group P<0.01)
CN1C(=O)CN=C(c2ccccc2)c2cc(Cl)ccc21 [Diazepam, diazepam] | 14.23 ± 1.06 | 121.23 ± 8.12 |  |  |  | 
COc1ccc(C(CN(C)C)C2(O)CCCCC2)cc1 (stereo not drawn) [Venlafaxine, venlafaxine] |  |  | 75.8 ± 19.4 | 60.9 ± 38.5 | 14.15 ± 12.32 | significantly shortened the escape latency
